Tests used:
in vivo [1] = settings: nu/nu, mouse, plasma, po, 10 mg/kg
MV4-11 = assay: cells; settings: Homo sapiens, MV4-11, 72 h
Description: Cytotoxicity against human MV4-11 cells after 72 hrs by cell titer-blue assay

in vitro [2] = settings: human, A375 cells
Description: Toxicity against human A375 cells after 72 hrs by cell titer-blue assay

in vivo [3] = settings: nu/nu, mouse, po, 10 mg/kg
Ephrin type-A receptor 7 = Ephrin type-A receptor 7 (Homo sapiens, UniProt Q15375)
Description: Binding affinity to EPHA7

in vivo [4] = settings: nu/nu, mouse, po, 10 mg/kg; remark: listed apart in the source
[5] = target: T1, Poly [ADP-ribose] polymerase tankyrase-2 (Homo sapiens, UniProt Q9H2K2)
T1 sequence (Q9H2K2 whole entry): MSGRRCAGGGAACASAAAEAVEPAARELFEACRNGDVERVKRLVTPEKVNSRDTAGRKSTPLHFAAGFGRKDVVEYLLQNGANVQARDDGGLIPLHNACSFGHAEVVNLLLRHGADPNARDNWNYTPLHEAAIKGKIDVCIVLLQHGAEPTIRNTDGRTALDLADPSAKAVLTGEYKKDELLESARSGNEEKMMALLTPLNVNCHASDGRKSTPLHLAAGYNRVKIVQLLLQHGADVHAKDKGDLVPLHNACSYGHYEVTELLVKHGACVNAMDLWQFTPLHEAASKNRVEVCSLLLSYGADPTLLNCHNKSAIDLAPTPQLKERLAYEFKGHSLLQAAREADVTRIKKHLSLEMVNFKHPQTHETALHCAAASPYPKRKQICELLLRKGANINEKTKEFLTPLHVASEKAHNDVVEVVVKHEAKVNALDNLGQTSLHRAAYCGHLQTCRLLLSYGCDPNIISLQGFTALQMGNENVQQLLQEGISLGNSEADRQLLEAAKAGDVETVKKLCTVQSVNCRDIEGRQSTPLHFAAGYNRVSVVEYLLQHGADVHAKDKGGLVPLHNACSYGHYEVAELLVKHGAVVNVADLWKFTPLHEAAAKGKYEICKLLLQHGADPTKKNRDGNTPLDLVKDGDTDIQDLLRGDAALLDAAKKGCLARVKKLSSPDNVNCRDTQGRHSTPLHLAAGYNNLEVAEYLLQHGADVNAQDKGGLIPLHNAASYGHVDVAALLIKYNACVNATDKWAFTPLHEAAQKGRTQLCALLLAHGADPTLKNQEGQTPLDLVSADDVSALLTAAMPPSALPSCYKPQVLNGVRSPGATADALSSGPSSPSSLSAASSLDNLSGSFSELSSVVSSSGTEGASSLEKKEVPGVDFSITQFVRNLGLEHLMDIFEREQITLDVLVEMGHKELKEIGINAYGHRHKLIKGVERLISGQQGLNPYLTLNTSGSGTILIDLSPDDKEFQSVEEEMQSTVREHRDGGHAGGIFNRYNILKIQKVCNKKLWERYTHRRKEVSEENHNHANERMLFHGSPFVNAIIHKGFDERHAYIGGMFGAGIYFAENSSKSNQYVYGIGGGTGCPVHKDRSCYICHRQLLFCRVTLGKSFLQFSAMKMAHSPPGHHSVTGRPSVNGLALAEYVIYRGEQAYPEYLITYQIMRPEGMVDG

in vitro [6] = settings: mouse, plasma
Description: Plasma protein binding in mouse

Sequence of Ephrin type-A receptor 7 (Q15375 whole entry): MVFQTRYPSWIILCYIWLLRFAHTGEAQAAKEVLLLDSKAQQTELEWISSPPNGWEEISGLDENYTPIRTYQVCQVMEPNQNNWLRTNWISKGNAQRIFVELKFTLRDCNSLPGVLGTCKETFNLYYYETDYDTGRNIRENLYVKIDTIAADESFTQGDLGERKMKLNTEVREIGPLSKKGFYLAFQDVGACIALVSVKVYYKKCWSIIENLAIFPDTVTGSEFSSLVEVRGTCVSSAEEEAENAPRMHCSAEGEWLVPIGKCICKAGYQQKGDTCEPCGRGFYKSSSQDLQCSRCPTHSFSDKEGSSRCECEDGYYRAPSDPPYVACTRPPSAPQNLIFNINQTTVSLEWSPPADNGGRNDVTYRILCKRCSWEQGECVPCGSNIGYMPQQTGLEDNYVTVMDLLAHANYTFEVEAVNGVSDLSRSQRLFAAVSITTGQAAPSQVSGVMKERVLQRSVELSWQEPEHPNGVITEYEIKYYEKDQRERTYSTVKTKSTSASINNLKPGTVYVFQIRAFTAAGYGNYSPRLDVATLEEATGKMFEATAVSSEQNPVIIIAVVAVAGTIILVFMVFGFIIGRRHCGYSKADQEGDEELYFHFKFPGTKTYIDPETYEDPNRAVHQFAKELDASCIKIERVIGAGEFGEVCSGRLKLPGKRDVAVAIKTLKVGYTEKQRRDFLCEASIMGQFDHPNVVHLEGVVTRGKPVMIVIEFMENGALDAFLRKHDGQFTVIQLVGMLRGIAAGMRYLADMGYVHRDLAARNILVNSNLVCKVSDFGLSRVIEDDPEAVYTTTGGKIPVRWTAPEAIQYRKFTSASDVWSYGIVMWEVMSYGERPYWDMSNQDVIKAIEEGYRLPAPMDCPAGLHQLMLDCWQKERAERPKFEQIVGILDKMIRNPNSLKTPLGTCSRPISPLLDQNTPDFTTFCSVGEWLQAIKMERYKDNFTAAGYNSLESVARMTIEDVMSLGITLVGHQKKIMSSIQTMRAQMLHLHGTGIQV

| AUC(0-t) at 24 h (in vivo [1]) [µM·h] | IC50 (MV4-11) [nM] | IC50 at 72 h (in vitro [2]) [nM] | Cmax (in vivo [3]) [nM] | Kd (Ephrin type-A receptor 7) [nM] | Tmax (in vivo [4]) [min] | Kd [5] [nM] | fraction unbound (in vitro [6]) | Compound |
| --- | --- | --- | --- | --- | --- | --- | --- | --- |
| 8.4 | 64 | 530 | 2300 | > 10000 | 40.2 |  |  | CO[C@@H]1[C@H](N(C)C(=O)c2ccccc2)C[C@H]2O[C@]1(C)n1c3ccccc3c3c4c(c5c6ccccc6n2c5c31)C(=O)N[C@H]4O [CGP-52421] |
| 0.28 | 60 | > 10000 | 81 |  | 60 | > 10000 | 0.02 | COc1cc2c(N3CCN(C(=O)Nc4ccc(OC(C)C)cc4)CC3)ncnc2cc1OCCCN1CCCCC1 [TANDUTINIB] |

Source: ChEMBL document CHEMBL1240346, “AC220 is a uniquely potent and selective inhibitor of FLT3 for the treatment of acute myeloid leukemia (AML)” (Blood, 2009)
